Results published in patent publication US11964971B2, “Methods and compositions for modulating splicing” (Skyhawk Therapeutics, Inc., priority 2019, dated 2024).
Like-named read-outs stand apart in the source and are kept apart here.

Assays:
SMN protein = SMN protein assay (MSD) in SMA patient fibroblasts (GM03813); assay type: cell-based, human
Procedure, shortened: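 Absolute SMN protein measured by Mesoscale Discovery assay in lysates, calibrated per plate with SMN standards (1–19.5 μg/ml). Cells: GM03813 SMA fibroblasts, 7000/well, 48 h compound exposure at doses of 2.5 μM down to 0.6 nM.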

[1] = tested on: MDR1-MDCK cell monolayers; experiment: MDCK-MDR1 permeability assay, blood-brain-barrier penetration potential
SMN FL and SMN Δ7 = experiment: Quantitative splicing assay (SMN) in SMA patient fibroblasts (GM03813); assay type: cell-based; settings: Homo sapiens, Fibroblast; class symbol; read-out: SMN2 Splicing FL EC50 (nM)*
Experimental: Spinal muscular atrophy (SMA) patient fibroblasts (GM03813, Coriell) are plated in 96-well plates at 50,000 cells/well. […] Treated cells are lysed and cDNA synthesized using the Fast Advanced Cells-to-Ct kit (Thermofisher A35378) according to the manufacturer's instructions. 2 μL of each cDNA are used in qPCR reactions. […] Reactions are run in a Quant Studio 6 qPCR instrument with default settings.

[2] = tested on: MDR1-MDCK cell monolayers; settings: dog, MDCK-MDR1, 120 min, 5 μM, pH 7.4
MDR1 (P-gp) [3] = experiment: in vitro; settings: dog, MDCK-MDR1, pH 7.4
MDR1 [4] = experiment: in vitro; settings: dog; for Papp A→B at 120 min, 5 μM: MDCK-MDR1, pH 7.4, MDCK-MDR1: Papp A-B (10^−6, cm/s); for Papp B→A at 120 min, 5 μM: MDCK-MDR1, pH 7.4, MDCK-MDR1: Papp B-A (10^−6, cm/s)
MDR1 (P-gp) [5] = experiment: MDCK-MDR1 permeability assay, blood-brain-barrier penetration potential; settings: dog, MDCK-MDR1, pH 7.4, MDCK-MDR1 Efflux Ratio
MDR1 [6] = experiment: as above; settings: dog, MDCK-MDR1, pH 7.4
[7] = dog, MDCK-MDR1, 120 min, 5 μM, pH 7.4

| Compound | EC50 (SMN protein) | MDCK-MDR1: % Recov A-B (%) ([1]; A-B) | MDCK-MDR1: % Recov B-A (%) ([1]; B-A) | MDCK-MDR1: % Recov A-B (%) [2] | MDCK-MDR1: % Recov B-A (%) [2] | MDCK-MDR1: Papp A-B (10^−6, cm/s) [2] | MDCK-MDR1: Papp B-A (10^−6, cm/s) [2] | MDCK-MDR1 Efflux Ratio [1, 7] | Papp A→B at 120 min, 5 μM (MDR1 [4]) | Papp B→A at 120 min, 5 μM (MDR1 [4]) | efflux ratio at 120 min, 5 μM (MDR1 (P-gp) [5]) | other results |
| --- | --- | --- | --- | --- | --- | --- | --- | --- | --- | --- | --- | --- |
| 2-(5-(((1S,2S,3R,5R)-2-fluoro-8-azabicyclo[3.2.1]octan-3-yl)(methyl)aniino)pyrazin-2-yl)-5-(6-methoxypyrimidin-4-yl)phenol [Compound 34E1] | 101 to 500 nM | 20% | 60% | – | – | – | – | – | – | – | – | MDCK-MDR1: Papp A-B (10^−6, cm/s) ([1]; A-B): 2.78 10^−6, cm/s; MDCK-MDR1: Papp B-A (10^−6, cm/s) ([1]; B-A): 8.79 10^−6, cm/s; MDCK-MDR1 Efflux Ratio ([1]; MDCK-MDR1): 3 |
| CN(c1cnc(-c2cc(F)c(-c3cnn(C)c3)cc2O)cn1)[C@H]1C[C@@H]2CCC(N2)[C@H]1F (single isomer, unassigned) [Compound 17E2] | 0.01 to 15 nM | – | – | 24% | 52% | 4.68 10^−6, cm/s | 18 10^−6, cm/s | 4 | – | – | – | EC50 (SMN FL and SMN Δ7): 101 to 500 nM |
| Cn1cc(-c2ccc(-c3cnc(N(C4CC4)[C@@H]4CC5CC[C@H](N5)[C@@H]4F)cn3)c(O)c2)cn1 (single isomer, unassigned) [Compound 49E2] | 501 to 10000 nM | – | – | 48% | 63% | 4.55 10^−6, cm/s | 34.9 10^−6, cm/s | 8 | – | – | – | – |
| COc1cc(-c2cc(O)c(-c3cnc(N(C)[C@@H]4C[C@@]5(C)CC[C@](C)(N5)[C@@H]4F)cn3)cc2F)cnn1 (single isomer, unassigned) [Compound 64E2] | 101 to 500 nM | – | – | 69% | 78% | 4.1 10^−6, cm/s | 44.1 10^−6, cm/s | 11 | – | – | – | – |
| CNC(=O)/C=C/c1cc(O)c(-c2cnc(N(C3CC3)[C@H]3C[C@]4(C)CC[C@@](C)(N4)[C@H]3F)cn2)cc1F (single isomer, unassigned) [Compound 79E2] | – | – | – | 91% | 89% | – | – | – | 2.05 ×10⁻⁶ cm/s | 52.7 ×10⁻⁶ cm/s | – | efflux ratio at 120 min, 5 μM (MDR1 (P-gp) [3]): 26 |
| CN(c1cnc(-c2ccc(-c3cn[nH]c3)cc2O)cn1)[C@@H]1C[C@@]2(C)CC[C@](C)(N2)[C@@H]1F [Compound 22E1, 2-(5-(((1S,2R,3R,5R)-2-fluoro-1,5-dimethyl-8-azabicyclo[3.2.1]octan-3-yl)(methyl)amino)pyrazin-2-yl)-5-(1H-pyrazol-4-yl)phenol] | 501 to 10000 nM | 63% | 78% | – | – | – | – | – | – | – | 10 | Papp A→B at 120 min, 5 μM (MDR1 [6]): 4.14 ×10⁻⁶ cm/s; Papp B→A at 120 min, 5 μM (MDR1 [6]): 39.8 ×10⁻⁶ cm/s |
| CN(c1cnc(-c2ccc(-c3cn[nH]c3)cc2O)cn1)[C@H]1C[C@]2(C)CC[C@@](C)(N2)[C@H]1F [Compound 22E2, 2-(5-(((1R,2S,3S,5S)-2-fluoro-1,5-dimethyl-8-azabicyclo[3.2.1]octan-3-yl)(methyl)amino)pyrazin-2-yl)-5-(1H-pyrazol-4-yl)phenol] | 501 to 10000 nM | 66% | 81% | – | – | – | – | – | – | – | 10 | Papp A→B at 120 min, 5 μM (MDR1 [6]): 3.49 ×10⁻⁶ cm/s; Papp B→A at 120 min, 5 μM (MDR1 [6]): 34.5 ×10⁻⁶ cm/s |
| CN(c1cnc(-c2cc(F)c(-c3ccn(C)c(=O)c3)cc2O)cn1)[C@@H]1C[C@@]2(C)CC[C@](C)(N2)[C@@H]1F [Compound 62E1, 4-(2-fluoro-4-(5-(((1S,2R,3R,5R)-2-fluoro-1,5-dimethyl-8-azabicyclo[3.2.1]octan-3-yl)(methyl)amino)pyrazin-2-yl)-5-hydroxyphenyl)-1-methylpyridin-2(1H)-one] | 501 to 10000 nM | – | – | – | – | 2.88 10^−6, cm/s | 41.5 10^−6, cm/s | 14 | 2.82 ×10⁻⁶ cm/s | 30.7 ×10⁻⁶ cm/s | 11 | – |
| CN(c1cnc(-c2ccc(-c3cc[nH]c(=O)c3)cc2O)cn1)[C@H]1C[C@@H]2CC[C@@H](N2)[C@H]1F [Compound 76E2, 4-(4-(5-(((1R,2R,3S,5S)-2-fluoro-8-azabicyclo[3.2.1]octan-3-yl)(methyl)amino)pyrazin-2-yl)-3-hydroxyphenyl)pyridin-2(1H)-one] | 16 to 50 nM | – | – | 93% | 75% | – | – | – | 0.37 ×10⁻⁶ cm/s | 28.9 ×10⁻⁶ cm/s | 78 | EC50 (SMN FL and SMN Δ7): 101 to 500 nM |
